Measurements as given in PMC10012172, “Chimeric Peptidomimetic Antibiotic Efficiently Neutralizes Lipopolysaccharides (LPS) and Bacteria-Induced Activation of RAW Macrophages” (ACS Infectious Diseases, 2023).
Where a SMILES comes first, the peptide text is derived from it. Bridges are numbered along the chain shown (N, C = ends). [ ]: non-standard residue; d: D form. Tle = CC(C)(C)[C@H](N)C(=O)O; dDab = NCC[C@@H](N)C(=O)O; hSer = N[C@@H](CCO)C(=O)O; Orn = NCCC[C@H](N)C(=O)O; Dab = NCC[C@H](N)C(=O)O

Assays:
[1] = tested on: RAW264.7 macrophages stimulated with treated P. aeruginosa; experiment: Silent killing: stimulation of macrophages with nonviable bacteria (TNF-α ELISA); assay type: cell-based; settings: RAW264.7 2 h; for macrophage activation (TNF-α) by peptide-treated P. aeruginosa compared to viable untreated bacteria: bacteria 1 × 10^6 CFU/mL treated with 20 μM peptide 1 h at 37 °C, three independent experiments
Protocol: Figure 7 (A) Determination of macrophage activation in response to viable and nonviable bacteria. P. aeruginosa was treated with gentamicin, heat treatment, CATH-2 (control), CPA, murepavadin, MHM, PMB, or PMBN (20 μM of each) and subsequently added to RAW264.7 macrophages. Production of TNF-α was measured using ELISA after 2 h of treatment. (B) Viability of P. aeruginosa after treatment was checked by plating on TSA plates. Data is plotted as the mean ± SEM of three independent experiments. Significant differences were determined by ordinary one-way ANOVA (Tukey’s multiple comparison test).
RAW264.7 cells were seeded (7.5 × 10^4 cells/well) as described above. P. aeruginosa (diluted to 1 × 10^6 CFU/mL in DMEM) was treated separately with heat (1 h at 90 °C), 1 mg/mL gentamicin (1 h at 37 °C), 20 μM CPA (1 h at 37 °C), 20 μM PMB (1 h at 37 °C), 20 μM murepavadin (1 h at 37 °C), 20 μM MHM (1 h at 37 °C), 20 μM CATH-2 (1 h at 37 °C), and DMEM only (untreated sample) (1 h at 4 °C). After treatment, the bacteria were added to the RAW264.7 cells for 2 h of incubation at 37 °C. After that, TNF-α production was determined in the supernatant by ELISA.

[2] = tested on: Escherichia coli (clinical isolate); assay type: cell-based; settings: clinical isolate, 3 h
Protocol: (§1) Figure 2 Determination of MBC values for (A) E. coli and (B) P. aeruginosa. Surviving bacterial colonies were detected after incubation with tested peptides for 3 h in MHB.
(§2) Bacterial strains used in this study were clinical isolates of Escherichia coli and Pseudomonas aeruginosa provided by Utrecht University Medical Center, Department of Medical Microbiology, Utrecht, The Netherlands. Both strains were cultured in Mueller Hinton broth (MHB) (Millipore, Sigma-Aldrich).
(§3) Logarithmic growth phase of an o/n bacterial culture was obtained by diluting it 1:100 in MHB and then incubating it for 3 h at 37 °C while shaking. After that, the OD620 of the bacterial suspension was measured and the bacterial solution was diluted to 2 × 10^6 colony forming units/mL (CFU/mL). Bacteria and peptides in MHB were mixed 1:1 (v/v) and incubated for 3 h at 37 °C in a polypropylene round-bottom 96 well-plate (Corning Costar, Glendale, AZ). Subsequently, 10-fold dilutions were made and plated out on Tryptone Soy Agar (TSA) plates and incubated for 24 h at 37 °C to count colonies.

[3] = tested on: Pseudomonas aeruginosa (clinical isolate); assay type: cell-based; settings: 3 h
Protocol: as §1, §2, §3

[4] = tested on: E. coli O111:B4 LPS stimulated RAW264.7 macrophages; experiment: Nitric oxide inhibition assay (Griess), E. coli O111:B4 LPS; assay type: cell-based; settings: smooth E. coli O111:B4 LPS 20 ng/mL; 0–5 μM peptide; 24 h
Protocol: (§4) Figure 3 Nitric oxide inhibition in LPS stimulated RAW264.7 by peptide antibiotics. RAW264.7 cells were stimulated with smooth type LPSs (A) E. coli O111:B4 LPS and (B) P. aeruginosa LPS and rough type LPS (C) E. coli K-12 LPS in the presence of different concentrations of peptides: CPA, murepavadin, MHM, PMB, and PMBN. NO production was measured by Griess assay. Shown are the mean ± SEM of three independent experiments. (D) Schematic diagram of the general structure of lipopolysaccharides. It consists of three main subunits: lipid A, the core region, and the O-antigen. Lipid A and the core-region form rough (R)-type LPS. Lipid A, the core-region, and the O-antigen together form smooth (S)-type LPS.
(§5) RAW264.7 cells were seeded (5 × 10^4 cells/well) in a 96-well plate and left at 37 °C for overnight adherence. Then, cells were stimulated with […] types of LPS: 20 ng/mL LPS originating from E. coli O111:B4 (LPS-EB, InvivoGen), 50 ng/mL LPS from P. aeruginosa (PA-10 LPS, Sigma -Aldrich), and 5 ng/mL LPS from E. coli K-12 (LPS-EK, InvivoGen) in the presence of 0–5 μM peptides in DMEM for 24 h. After incubation, the nitrite content (corresponding to nitric oxide produced but quickly oxidized in watery solutions to nitrite) in the supernatant was measured using the Griess assay.[28]

[5] = tested on: P. aeruginosa 10 LPS stimulated RAW264.7 macrophages; experiment: Nitric oxide inhibition assay (Griess), P. aeruginosa 10 LPS; assay type: cell-based; settings: smooth P. aeruginosa 10 LPS 50 ng/mL; 0–5 μM peptide; 24 h
Protocol: as §4, §5

[6] = tested on: E. coli O111:B4 LPS stimulated RAW264.7 macrophages; experiment: IL-10 release ELISA in LPS stimulated macrophages; assay type: cell-based; settings: 20 ng/mL E. coli O111:B4 LPS, 24 h; for concentration inhibiting IL-10 release: unable to inhibit up to highest concentration
Protocol: (§6) Figure 4 Peptides modulation of cytokine expression in RAW264.7 cells stimulated with LPS. RAW macrophages were stimulated with 20 ng/mL E. coli LPS in the presence of different concentrations of peptide antibiotics. (A) TNF-α and (B) IL-10 release was measured by ELISA in duplicates. Shown are the mean ± SEM of three independent experiments.
as §5
(§7) A sandwich ELISA was used to measure TNF-α and IL-10 concentrations in the supernatant of the same treatment (24 h) used for nitrite measurement, using ELISA Duoset kits (R&D systems, Minneapolis, MN) according to the manufacturer’s protocol.

E. coli O111:B4 LPS = experiment: Isothermal titration calorimetry (ITC) of LPS binding; settings: 30 μM peptide, 200 μM LPS in 50% PBS, 37 °C, representative of two measurements
Protocol: Figure 6 (A) Binding profile of LPS and the peptides using ITC. Binding signatures (ΔG, ΔH. and −TΔS) plotted for binding events of LPS with peptides. (B) Spectra of the interaction between LPS and peptides. Murepavadin, PMB, MHM, PMBN, and CPA (30 μM) were titrated against 200 μM E. coli O111:B4 LPS, and heat rates were recorded. Shown is a representative of two measurements.
ITC measurements were performed in a low volume NanoITC (TA Instruments-Waters LLC, New Castle, DE). Two hundred micromolar LPS (from E. coli O111:B4) was prepared in 50% PBS. Peptides of 30 μM concentration were prepared in identical buffer. Three hundred microliters of the peptide solution was added to the chamber (chamber volume is 169 μL, so the rest of the volume flows out and rests around the chamber), and 50 μL of LPS was added to the syringe. At 37 °C, 2 μL of LPS solution was injected into the chamber every 300 s, except the first injection, which consists of 0.96 μL. The experiments were performed at 37 °C while stirring at 300 rpm. The data was analyzed with the NanoAnalyze Software (TA Instruments, Asse, Belgium).

[7] = tested on: E. coli K-12 LPS stimulated RAW264.7 macrophages; experiment: Nitric oxide inhibition assay (Griess), E. coli K-12 LPS; assay type: cell-based; settings: rough E. coli K-12 LPS 5 ng/mL; 0–5 μM peptide; 24 h
Protocol: as §4, §5

[8] = tested on: E. coli O111:B4 LPS stimulated RAW264.7 macrophages; experiment: TNF-α release ELISA in LPS stimulated macrophages; assay type: cell-based; settings: 20 ng/mL E. coli O111:B4 LPS, 24 h; for concentration inhibiting TNF-α release: unable to inhibit up to highest concentration
Protocol: as §6, §5, §7

| Compound | macrophage activation (TNF-α) by gentamicin-killed P. aeruginosa compared to viable untreated bacteria ([1]; bacteria treated with 1 mg/mL gentamicin 1 h at 37 °C) | MBC (complete killing) against E. coli [2] [µM] | MBC (complete killing) against P. aeruginosa [3] [µM] | inhibition of LPS-induced nitric oxide production (in words) [4] | inhibition of LPS-induced nitric oxide production (in words) [5] | inhibition of IL-10 release (in words) [6] | Kd (E. coli O111:B4 LPS) [nM] | inhibition of LPS-induced nitric oxide production (in words) [7] | inhibition of TNF-α release (in words) [8] | concentration inhibiting TNF-α release [8] [µM] | concentration inhibiting IL-10 release [6] [µM] | macrophage activation (TNF-α) by peptide-treated P. aeruginosa compared to viable untreated bacteria [1] |
| --- | --- | --- | --- | --- | --- | --- | --- | --- | --- | --- | --- | --- |
| CNC(C)C1CCC(N)C(OC2C(N)CC(N)C(OC3OCC(C)(O)C(NC)C3O)C2O)O1 (centres unmarked) [Gentamicin] | almost same level as viable untreated bacteria |  |  |  |  |  |  |  |  |  |  |  |
| CC(C)C[C@@H]1NC(=O)[C@@H](Cc2ccccc2)NC(=O)[C@H](CCN)NC(=O)[C@@H](NC(=O)[C@H](CCN)NC(=O)[C@@H](N)[C@@H](C)O)CCNC(=O)[C@H]([C@@H](C)O)NC(=O)[C@H](CCN)NC(=O)[C@H](CCN)NC1=O [PMBN, polymyxin B nonapeptide] (H-T[Dab][Dab][Dab][dF]L[Dab][Dab]T; lactam 3-C (inferred); N-terminus assumed) |  | > 20 | > 20 | partially inhibited nitric oxide production only at 5 μM | partially inhibited nitric oxide production only at 5 μM | inhibit IL-10 release dose-dependently but at concentrations much higher than those required for CPA or PMB | 3800 |  |  |  |  |  |
| polymyxin B [PMB] |  |  |  | dose-dependently active | dose-dependently active | slightly less activity compared to CPA | 2500 | dose-dependently active | slightly less activity compared to CPA |  |  |  |
| CC[C@H](C)[C@@H]1NC(=O)[C@H](Cc2c[nH]c3ccccc23)NC(=O)[C@H]([C@@H](C)O)NC(=O)[C@@H]2CCCN2C(=O)[C@H]2CCCN2C(=O)[C@H](CO)NC(=O)[C@H](C)NC(=O)[C@H](CCN)NC(=O)[C@H](CCN)NC(=O)[C@H](Cc2c[nH]c3ccccc23)NC(=O)[C@H](CCN)NC(=O)[C@@H](CCN)NC(=O)[C@H](CCCN)NC(=O)[C@H](CCN)NC1=O [murepavadin] (cyclo(TWI[Dab][Orn][dDab][Dab]W[Dab][Dab]AS[dP]P)) |  | > 20 | 5 to 10 |  |  |  | 2020 |  |  | > 5 | > 5 | no significant reduction in macrophage activation |
| CC(C)[C@@H]1NC(=O)[C@@H]2CCCN2C(=O)[C@@H](C)NC(=O)[C@H](CO)NC(=O)[C@H](C)NC(=O)[C@H](C(C)(C)C)NC(=O)[C@H](CCO)NC(=O)[C@H](Cc2c[nH]c3ccccc23)NC(=O)[C@H](CCO)NC(=O)[C@@H](CCN)NC(=O)[C@H](CCC(=O)O)NC(=O)[C@H](CCN)NC(=O)[C@H](Cc2ccc(O)cc2)NC(=O)[C@H]([C@@H](C)O)NC1=O [MHM] (cyclo(VTY[Dab]E[dDab][hSer]W[hSer][Tle]AS[dA]P)) |  | > 20 | > 20 |  |  |  | 970 |  |  | > 5 | > 5 | no significant reduction in macrophage activation |
| chicken cathelicidin 2 (LVQRGRFGRFLRKIRRFRPKVTITIQGSARFG; Cathelicidin-2; UniProt Q2IAL7 123-154, looked up) [CATH-2, chicken cathelicidin 2, control peptide for which silent killing was originally described] |  |  |  |  |  |  |  |  |  |  |  | significantly reduced immune response |
